Laboratory results as given in ChEMBL document CHEMBL5725801, “Fused heterocyclic compounds as CaM kinase inhibitors” (2018).
pEC50: −log10 of the molar value.

assay: CaMKII Cell-Based Activity: CaMKII activity in neonatal rat ventricular myocytes (NRVM) was measured by monitoring the phosphorylation level of phospholamban using high-content imaging. NRVMs were plated in a clear bottom 384-well plate in medium supplemented with 10% fetal bovine serum (FBS) and incubated at 37° C., 5% CO2 overnight. The medium was changed to a serum-free medium and compounds were dosed to the cells. The cells were incubated at 37° C., 5% CO2 for 4 hours and were then treated with 100 nM ATX-II (Alomone Labs) to activate CaMKII. 10 minutes after the addition of ATX-II, the cells were fixed with 4% formaldehyde followed by permeabilization with 0.1% triton X100. The fixed cells were stained with an anti-phospho-phospholamban primary antibody (Santa Cruz Biotechnology) and an Alexa488-labeled anti-rabbit IgG secondary antibody (Life Technologies Corporation) as well as Hoechst 33342 (Life Technologies Corporation). The cells were imaged using an ArrayScan VTI (Cellomics) and analyzed for cells containing a positive fluorescent signal at 485 nm, reported as % responder. The % responders were plotted against the compound concentration to determine the compounds EC50.

`CCNC(CNC(=O)c1ccnc(-c2cnn3ccc(-c4ccccc4)nc23)c1)C(C)C` (stereo not given) and `CCN[C@H](C)CNC(=O)c1ccnc(-c2cnn3ccc(-c4ccccc4)nc23)c1` are within 0.2 log units of each other in pEC50: 6.97 for the first, 7.14 for the second.

Going from `N[C@H]1CCN(C(=O)c2ccnc(-c3cnn4ccc(-c5ccccc5)nc34)c2)C1` to `CN(C)c1cc(C(=O)N2CC[C@H](N)C2)cc(-c2cnn3ccc(-c4ccccc4)nc23)n1`, the pEC50 falls from 6.70 to 6.08 (0.62 log units). The first is the more potent here.

`CCN(CC)[C@@H](C)CNC(=O)c1cc(-c2cnn3ccc(-c4cccs4)nc23)nc(N2CC[C@H]2C(=O)N2CC(NS(C)(=O)=O)C2)c1` and `CCN(CC)[C@@H](C)CNC(=O)c1cc(-c2cnn3ccc(-c4cccs4)nc23)nc(N2CC[C@H]2C(=O)N2CC(O)C2)c1` are within 0.2 log units of each other in pEC50: 6.83 for the first, 6.82 for the second.

Compared with `CCN(CC)CCNC(=O)c1cc(-c2cnn3ccc(-c4cccs4)nc23)nc(N2CC(C)(O)C2)c1`, `CCN(CC)CCNC(=O)c1cc(-c2cnn3ccc(-c4cccs4)nc23)nc(N2CC(OC)C2)c1` is 0.23 log units lower in pEC50: 7.27 for the first, 7.04 for the second. The first is the more potent here.

Compared with `NC[C@H]1CCCCN1C(=O)c1cc(-c2cnn3ccc(-c4ccccc4)nc23)ncc1Cl`, `COc1cc(C(=O)N2CCCC[C@@H]2CN)cc(-c2cnn3ccc(-c4ccccc4)nc23)n1` is 0.95 log units lower in pEC50: 7.45 for the first, 6.50 for the second.

`O=C(c1ccnc(-c2cnn3ccc(-c4ccccc4)nc23)c1)N1C2CCCC1CNCC2` (stereo not given) and `N[C@@H]1CCC[C@H]2CCCN(C(=O)c3ccnc(-c4cnn5ccc(-c6ccccc6)nc45)c3)[C@H]21` are within 0.2 log units of each other in pEC50: 7.29 for the first, 7.14 for the second.

First: CCN[C@@H](C)CNC(=O)c1cc(C)nc(-c2cnn3ccc(-c4ccccc4)nc23)c1
Second: CCN[C@@H](C)CNC(=O)c1cc(Cl)nc(-c2cnn3ccc(-c4ccccc4)nc23)c1
The pEC50 of the first is 1.31 log units lower: 6.55 for the first, 7.86 for the second. The second is the more potent here.

`CCN(CC)[C@@H](C)CNC(=O)c1cc(-c2cnn3ccc(-c4cccs4)nc23)nc(N2CC(F)C2)c1` and `CCN(CC)[C@@H](C)CNC(=O)c1cc(-c2cnn3ccc(-c4cccs4)nc23)nc(N2CC(OC)C2)c1` are within 0.2 log units of each other in pEC50: 7.69 for the first, 7.86 for the second.

`O=C(NC[C@@H]1CCCN1)c1ccnc(-c2cnn3ccc(-c4cccs4)nc23)c1` and `O=C(NC[C@H]1CCN1)c1ccnc(-c2cnn3ccc(-c4cccs4)nc23)c1` are the same in pEC50: 6.90 for the first, 6.90 for the second.

`CCN[C@@H](CC)CNC(=O)c1ccnc(-c2cnn3ccc(-c4cccs4)nc23)c1` and `CCN(CC)C(C)CNC(=O)c1ccnc(-c2cnn3ccc(-c4cccs4)nc23)c1` (stereo not given) are within 0.2 log units of each other in pEC50: 7.36 for the first, 7.45 for the second.

`CC(C)C(CNC(=O)c1ccnc(-c2cnn3ccc(-c4ccccc4)nc23)c1)NCC1CC1` (stereo not given) and `CCC(CNC(=O)c1ccnc(-c2cnn3ccc(-c4ccccc4)nc23)c1)NCC1CC1` (stereo not given) are within 0.2 log units of each other in pEC50: 7.05 for the first, 7.12 for the second.

Going from `CCN[C@@H](C)CNC(=O)c1cc(-c2cnn3ccc(-c4cccs4)nc23)nc(N2CC(OC)C2)c1` to `CCN[C@@H](C)CNC(=O)c1cc(-c2cnn3ccc(-c4cccs4)nc23)nc(N2CC(O)C2)c1`, the pEC50 falls from 7.04 to 6.22 (0.82 log units).

`CCN(CC)[C@@H](C)CNC(=O)c1cc(-c2cnn3ccc(-c4cccs4)nc23)nc(N2CC(NC(=O)N(C)C)C2)c1` and `CCN(CC)[C@@H](C)CNC(=O)c1cc(-c2cnn3ccc(-c4cccs4)nc23)nc(N2CC[C@H]2C(=O)N(C)OC)c1` are within 0.2 log units of each other in pEC50: 7.65 for the first, 7.54 for the second.

Compared with `CCN(CC)[C@@H](C)CNC(=O)c1cc(-c2cnn3ccc(-c4cccs4)nc23)nc(N2CC(O)(CC)C2)c1`, `CCN(CC)[C@@H](C)CNC(=O)c1cc(-c2cnn3ccc(-c4cccs4)nc23)nc(N2CC(C)(OC)C2)c1` is 0.47 log units higher in pEC50: 7.61 for the first, 8.08 for the second.

`CCN(CC)[C@@H](C)CNC(=O)c1cc(Nc2cn[nH]c2)nc(-c2cnn3ccc(-c4cccs4)nc23)c1` and `CCN(CC)[C@@H](C)CNC(=O)c1cc(-c2cn[nH]c2)nc(-c2cnn3ccc(-c4cccs4)nc23)c1` are within 0.2 log units of each other in pEC50: 8.01 for the first, 7.87 for the second.

`CC[C@@H](CNC(=O)c1cc(-c2cnn3ccc(-c4cccs4)nc23)nc(N2CC[C@H]2C(=O)NC)c1)N(CC)CCO` and `CC[C@@H](CNC(=O)c1cc(-c2cnn3ccc(-c4cccs4)nc23)nc(N2CC[C@H]2C(=O)NC)c1)N(CC)CC` (single isomer, unassigned) are within 0.2 log units of each other in pEC50: 7.24 for the first, 7.42 for the second.

`NC[C@H]1CC(F)(F)CN1C(=O)c1ccnc(-c2cnn3ccc(-c4cccs4)nc23)c1` and `N[C@H]1CCCN(C(=O)c2ccnc(-c3cnn4ccc(-c5cccs5)nc34)c2)C1` are within 0.2 log units of each other in pEC50: 6.50 for the first, 6.66 for the second.

Going from `COC1CN(c2cc(C(=O)NCC34CCCN3CCC4)cc(-c3cnn4ccc(-c5ccccc5)nc34)n2)C1` to `COC1CN(c2cc(C(=O)NC[C@H](C)N)cc(-c3cnn4ccc(-c5ccccc5)nc34)n2)C1`, the pEC50 falls from 7.16 to 6.91 (0.25 log units).

`N[C@H]1CCC[C@@H]1NC(=O)c1ccnc(-c2cnn3ccc(-c4ccccc4)nc23)c1` and `N[C@@H]1CCC[C@@H]1NC(=O)c1ccnc(-c2cnn3ccc(-c4ccccc4)nc23)c1` are within 0.2 log units of each other in pEC50: 6.54 for the first, 6.52 for the second.

`CCN(CC)[C@@H](C)CNC(=O)c1cc(OCCOC)nc(-c2cnn3ccc(-c4cccs4)nc23)c1` and `CCN(CC)[C@@H](C)CNC(=O)c1cc(NCCCOC)nc(-c2cnn3ccc(-c4cccs4)nc23)c1` are within 0.2 log units of each other in pEC50: 7.49 for the first, 7.50 for the second.

Compared with `CNC(=O)[C@@H]1CCN1c1cc(C(=O)NC[C@H](C)N)cc(-c2cnn3ccc(-c4cccs4)nc23)n1`, `CCN(CC)[C@@H](CO)CNC(=O)c1cc(-c2cnn3ccc(-c4cccs4)nc23)nc(N2CC[C@H]2C(=O)NC)c1` is 1.97 log units higher in pEC50: 5.17 for the first, 7.14 for the second.

`CCN(CC)[C@@H](C)CNC(=O)c1cc(-c2cnn3ccc(-c4cccs4)nc23)nc(N2CC(CO)(CO)C2)c1` and `CCN(CC)[C@@H](C)CNC(=O)c1cc(-c2cnn3ccc(-c4cccs4)nc23)nc(N2CCC[C@H]2CO)c1` are within 0.2 log units of each other in pEC50: 6.97 for the first, 6.95 for the second.

Going from `CCN(CC(F)F)[C@@H](C)CNC(=O)c1ccnc(-c2cnn3ccc(-c4cccs4)nc23)c1` to `C[C@@H](CNC(=O)c1ccnc(-c2cnn3ccc(-c4cccs4)nc23)c1)NCCF`, the pEC50 rises from 6.71 to 7.02 (0.31 log units). The second is the more potent here.

Compared with `CCN(CC)CCNC(=O)c1cc(NCCO)nc(-c2cnn3ccc(-c4cccs4)nc23)c1`, `CCN(CC)CCNC(=O)c1cc(-c2cnn3ccc(-c4cccs4)nc23)nc(N2CC[C@H]2C(=O)NC)c1` is 0.59 log units higher in pEC50: 6.87 for the first, 7.46 for the second. The second is the more potent here.

Compared with `CC(C)(N)CNC(=O)c1ccnc(-c2cnn3ccc(-c4ccccc4)nc23)c1`, `CCNC(C)(C)CNC(=O)c1ccnc(-c2cnn3ccc(-c4ccccc4)nc23)c1` is 0.21 log units higher in pEC50: 6.96 for the first, 7.17 for the second. The second is the more potent here.

`CC(C)(C)c1cc(C(=O)N2CCCC[C@@H]2CN)cc(-c2cnn3ccc(-c4ccccc4)nc23)n1` and `C[C@H](N)[C@@H]1CCCCN1C(=O)c1ccnc(-c2cnn3ccc(-c4ccccc4)nc23)c1` are within 0.2 log units of each other in pEC50: 7.33 for the first, 7.34 for the second.

Going from `CCN(CC)[C@@H](C)CNC(=O)c1cc(OCCc2cnccn2)nc(-c2cnn3ccc(-c4cccs4)nc23)c1` to `CCN(CC)[C@@H](C)CNC(=O)c1cc(-c2cc[nH]n2)nc(-c2cnn3ccc(-c4cccs4)nc23)c1`, the pEC50 rises from 7.19 to 7.84 (0.65 log units).

Going from `CCN[C@@H](C)CNC(=O)c1cc(-c2cnn3ccc(-c4cccs4)nc23)nc(N2CC(C)(O)C2)c1` to `C[C@H](N)CNC(=O)c1cc(-c2cnn3ccc(-c4cccs4)nc23)nc(N2CC(O)C2)c1`, the pEC50 falls from 6.43 to 5.61 (0.82 log units). The first is the more potent here.

`CCN(CC)[C@@H](C)CNC(=O)c1cc(-c2cnn3ccc(-c4cccs4)nc23)nc(N2CCC(OC)CC2)c1` and `CCN(CC)[C@@H](C)CNC(=O)c1cc(-c2cnn3ccc(-c4cccs4)nc23)nc(N2CCNC(=O)C2)c1` are within 0.2 log units of each other in pEC50: 6.96 for the first, 7.02 for the second.

First: O=C(NC[C@]1(CC2CC2)CCCN1)c1ccnc(-c2cnn3ccc(-c4cccs4)nc23)c1
Second: O=C(NCC12CCCN1CCC2)c1ccnc(-c2cnn3ccc(-c4cccs4)nc23)c1
The pEC50 of the first is 0.21 log units lower: 7.17 for the first, 7.38 for the second. The second is the more potent here.

`O=C(c1ccnc(-c2cnn3ccc(-c4cccs4)nc23)c1)N1CC2CCC(C1)NC2` (stereo not given) and `O=C(c1cc(-c2cnn3ccc(-c4cccs4)nc23)nc(N2CCN(C3COC3)CC2)c1)N1CC2CCC(C1)NC2` (stereo not given) are within 0.2 log units of each other in pEC50: 7.02 for the first, 7.09 for the second.

Compared with `CCN(CC)[C@@H](C)CNC(=O)c1cc(-c2cnn3ccc(-c4cccs4)nc23)nc(N2CC[C@H]2C(=O)NCCF)c1`, `CCN(CC)[C@@H](C)CNC(=O)c1cc(-c2cnn3ccc(-c4cccs4)nc23)nc(N2CC[C@H]2C(=O)NCC2CC2)c1` is 0.20 log units higher in pEC50: 7.28 for the first, 7.48 for the second. The second is the more potent here.

`CCN(CC)[C@@H](C)CNC(=O)c1cc(-c2cnn3ccc(-c4cccs4)nc23)nc(C(F)(F)F)c1` and `CCN(CC)[C@@H](C)CNC(=O)c1cc(Cl)nc(-c2cnn3ccc(-c4cccs4)nc23)c1` are within 0.2 log units of each other in pEC50: 6.99 for the first, 7.16 for the second.

First: CCN(CC)[C@@H](C)CNC(=O)c1cccc(-c2cnn3ccc(-c4cccs4)nc23)n1
Second: CCN(CC)[C@@H](C)CNC(=O)c1cc(NC(=O)C(C)C)nc(-c2cnn3ccc(-c4cccs4)nc23)c1
The pEC50 of the first is 0.70 log units lower: 6.99 for the first, 7.69 for the second. The second is the more potent here.

Going from `CCN(CC)[C@@H](C)CNC(=O)c1cc(NS(=O)(=O)C2CC2)nc(-c2cnn3ccc(-c4cccs4)nc23)c1` to `CCN(CC)[C@@H](C)CNC(=O)c1cc(NC(=O)C2CC2)nc(-c2cnn3ccc(-c4cccs4)nc23)c1`, the pEC50 rises from 7.02 to 7.56 (0.54 log units).

Compared with `CCN(CC)[C@@H](C)CNC(=O)c1cc(Nc2ncc[nH]2)nc(-c2cnn3ccc(-c4cccs4)nc23)c1`, `CCN(CC)[C@@H](C)CNC(=O)c1cc(N[C@H]2CCOC2)nc(-c2cnn3ccc(-c4cccs4)nc23)c1` is 0.91 log units higher in pEC50: 6.61 for the first, 7.52 for the second. The second is the more potent here.

Going from `CCN(CC)[C@@H](C)CNC(=O)c1cc(NCCN2CCOCC2)nc(-c2cnn3ccc(-c4cccs4)nc23)c1` to `CCN(CC)[C@@H](C)CNC(=O)c1cc(NCCN2CC(F)(F)C2)nc(-c2cnn3ccc(-c4cccs4)nc23)c1`, the pEC50 falls from 7.56 to 7.34 (0.22 log units).

First: CCN(CC)[C@@H](C)CNC(=O)c1cc(-c2cnn3ccc(-c4ccccc4)nc23)nc(N2CC[C@H]2C(=O)NC)c1
Second: CCN(CC)[C@@H](C)CNC(=O)c1cc(-c2cnn3ccc(-c4ccc(F)s4)nc23)nc(N2CC[C@H]2C(=O)NC)c1
The pEC50 of the first is 1.16 log units lower: 6.84 for the first, 8.00 for the second. The second is the more potent here.

Going from `CCN[C@H](CNC(=O)c1ccnc(-c2cnn3ccc(-c4ccccc4)nc23)c1)COc1ncccn1` to `O=C(NC[C@@H]1C[C@H](F)CN1)c1ccnc(-c2cnn3ccc(-c4cccs4)nc23)c1`, the pEC50 falls from 7.34 to 6.41 (0.93 log units).

Compared with `CC[C@H](CNC(=O)c1cc(-c2cnn3ccc(-c4cccs4)nc23)nc(N2CC[C@H]2C(=O)NC)c1)N(CC)CC` (single isomer, unassigned), `CCN(CC)[C@@H](C)CNC(=O)c1cc(-c2cnn(C3COC3)c2)nc(-c2cnn3ccc(-c4cccs4)nc23)c1` is 0.45 log units higher in pEC50: 7.46 for the first, 7.91 for the second.
